Results published in ChEMBL document CHEMBL5576045, “M1/M4 receptors as potential therapeutic treatments for schizophrenia: A comprehensive study” (Bioorg Med Chem, 2024).

Target: T1, Muscarinic acetylcholine receptor M4 (Homo sapiens) (UniProt P08173)
T1 sequence (whole entry): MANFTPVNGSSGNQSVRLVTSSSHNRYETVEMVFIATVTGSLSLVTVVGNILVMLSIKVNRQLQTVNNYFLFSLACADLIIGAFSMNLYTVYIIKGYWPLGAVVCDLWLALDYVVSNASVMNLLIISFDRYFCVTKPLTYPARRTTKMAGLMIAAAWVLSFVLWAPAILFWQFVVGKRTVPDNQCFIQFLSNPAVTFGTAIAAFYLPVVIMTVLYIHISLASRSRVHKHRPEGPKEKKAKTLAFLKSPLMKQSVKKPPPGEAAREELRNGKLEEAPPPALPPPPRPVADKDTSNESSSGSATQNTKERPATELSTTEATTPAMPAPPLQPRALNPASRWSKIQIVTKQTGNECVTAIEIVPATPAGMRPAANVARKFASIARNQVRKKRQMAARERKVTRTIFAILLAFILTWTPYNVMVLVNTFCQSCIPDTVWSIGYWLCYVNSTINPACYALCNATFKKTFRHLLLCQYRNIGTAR
Test: Binding affinity to M4 receptor (unknown origin) assessed as fold change in presence of acetylcholine

fold change (FC): 3
Structure (SMILES): CC1=C(CCO)SC2=Nc3nc(C)ncc3CN21
